Assay results taken from article PMC11864979, “First-in-class ultralong-target-residence-time p38α inhibitors as a mitosis-targeted therapy for colorectal cancer” (Nature Cancer, 2025).
Several values for one entry are separate records, joined by “and”; a condition that tells them apart may be missing. Identical values can stand only once. Like-named read-outs stand apart in the source and are kept apart here.

Legend:
KMP liver metastasis = assay: survival of mice with KMP liver metastasis; type: in vivo, mouse
Procedure: Subcutaneous injection, splenic seeding or cecum injection of organoids was performed in 8–10-week-old C57BL/6 N/Crl, Rag2^−/− (B6.Cg-Rag2^tm1.1Cgn/J), or CB17 Scid beige (CB17.Cg-Prkdc^scidLyst^bg-J/Crl) mice, obtained from Charles River. The organoids were dissociated into single cells, washed with PBS and injected in a 1:1 mixture of PBS and Matrigel. For murine organoids, 1 × 10^5 cells were injected into the left and right flanks or the spleen capsule and 2 × 10^6 cells were injected into the cecum wall. For human organoids, 4 × 10^5 cells were injected into the flanks of CB17 Scid beige mice. For splenic seeding and cecum injection, mice were anaesthetized using ketamine (100 mg kg^−1, intraperitoneally) and xylazin (10 mg/kg, intraperitoneally) in NaCl and a small laparotomy below the thorax was performed.

[1] = full blood analysis of mice treated for 4 days or 10 weeks (Sysmex KX-21N); type: in vivo, mouse; conditions: for Hemoglobin / MCV / MCH / MCHC: individual animals; for Hemoglobin: ED Fig. 10a; for MCV: ED Fig. 10b; for MCH: ED Fig. 10c; for MCHC: ED Fig. 10d; for Hematocrit (%): mice
Excerpt: We conducted a daily treatment of wild-type mice with 2015 or carrier for either 4 days or 10 weeks and subsequently quantified leukocytes, platelets and erythrocytes. Furthermore, we determined the hematocrit and the hemoglobin concentration and calculated routinely used red blood cell indices (mean corpuscular volume (MCV), mean corpuscular hemoglobin (MCH) and mean corpuscular hemoglobin concentration (MCHC)). […] No mice were excluded during treatment studies. […] GFP imaging of tumors was performed using a Hamamatsu imaging system. For quantification of compounds in the murine plasma, 20 μl of tail-vein blood was diluted with 80 μl of heparin solution, before 200 μl of ice-cold acetonitrile with a defined internal standard was added. The samples were sonicated and centrifuged and the supernatant was subjected to liquid chromatography-mass spectrometry quantification. Full blood analyses were performed with the Sysmex KX-21N hematology analyzer.

340 wild-type kinases [2] = biological target: T1, 340 wild-type kinases (Homo sapiens, UniProt Q96RG2); assay: selectivity profiling in a panel of 340 wild-type kinases (Reaction Biology Europe); type: binding
T1 construct: purchased Reaction Biology Europe
T1 sequence (Q96RG2 whole entry): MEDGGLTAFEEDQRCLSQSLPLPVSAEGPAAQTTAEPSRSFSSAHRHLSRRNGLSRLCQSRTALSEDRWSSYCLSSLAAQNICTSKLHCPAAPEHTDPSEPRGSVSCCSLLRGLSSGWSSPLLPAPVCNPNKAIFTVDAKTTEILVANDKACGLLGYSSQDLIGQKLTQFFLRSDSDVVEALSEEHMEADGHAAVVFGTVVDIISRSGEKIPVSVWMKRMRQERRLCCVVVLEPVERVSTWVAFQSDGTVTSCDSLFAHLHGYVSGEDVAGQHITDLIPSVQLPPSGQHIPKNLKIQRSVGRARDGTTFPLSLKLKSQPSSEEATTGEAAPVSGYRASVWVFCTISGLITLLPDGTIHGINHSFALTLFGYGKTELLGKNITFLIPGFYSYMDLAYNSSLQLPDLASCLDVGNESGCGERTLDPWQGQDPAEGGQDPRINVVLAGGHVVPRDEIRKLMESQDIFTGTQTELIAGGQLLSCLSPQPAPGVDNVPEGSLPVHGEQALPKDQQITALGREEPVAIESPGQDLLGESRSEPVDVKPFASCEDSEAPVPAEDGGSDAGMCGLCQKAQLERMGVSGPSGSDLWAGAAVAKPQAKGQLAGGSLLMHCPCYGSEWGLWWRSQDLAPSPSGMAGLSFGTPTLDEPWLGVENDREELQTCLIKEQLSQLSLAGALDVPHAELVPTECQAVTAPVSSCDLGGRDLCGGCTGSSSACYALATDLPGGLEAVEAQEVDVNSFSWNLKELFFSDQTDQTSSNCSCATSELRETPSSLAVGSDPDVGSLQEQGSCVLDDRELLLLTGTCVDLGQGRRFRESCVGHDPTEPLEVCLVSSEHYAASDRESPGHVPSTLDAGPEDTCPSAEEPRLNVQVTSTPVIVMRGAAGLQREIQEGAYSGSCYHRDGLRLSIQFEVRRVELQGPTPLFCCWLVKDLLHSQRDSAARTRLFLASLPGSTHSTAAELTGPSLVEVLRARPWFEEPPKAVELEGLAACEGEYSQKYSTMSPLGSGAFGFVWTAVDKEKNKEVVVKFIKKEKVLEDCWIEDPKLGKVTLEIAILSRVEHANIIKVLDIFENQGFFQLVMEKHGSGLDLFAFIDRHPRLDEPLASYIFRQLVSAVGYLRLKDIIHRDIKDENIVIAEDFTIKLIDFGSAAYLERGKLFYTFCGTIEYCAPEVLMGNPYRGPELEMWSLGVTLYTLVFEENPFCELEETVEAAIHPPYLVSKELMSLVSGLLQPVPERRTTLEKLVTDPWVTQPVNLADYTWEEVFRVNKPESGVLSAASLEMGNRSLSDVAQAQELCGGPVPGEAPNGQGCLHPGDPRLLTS

340 wild-type kinases [3] = biological target: T2, 340 wild-type kinases (Homo sapiens, UniProt P37173); assay: as above; type: binding
T2 construct: purchased Reaction Biology Europe
T2 sequence (P37173 23-567): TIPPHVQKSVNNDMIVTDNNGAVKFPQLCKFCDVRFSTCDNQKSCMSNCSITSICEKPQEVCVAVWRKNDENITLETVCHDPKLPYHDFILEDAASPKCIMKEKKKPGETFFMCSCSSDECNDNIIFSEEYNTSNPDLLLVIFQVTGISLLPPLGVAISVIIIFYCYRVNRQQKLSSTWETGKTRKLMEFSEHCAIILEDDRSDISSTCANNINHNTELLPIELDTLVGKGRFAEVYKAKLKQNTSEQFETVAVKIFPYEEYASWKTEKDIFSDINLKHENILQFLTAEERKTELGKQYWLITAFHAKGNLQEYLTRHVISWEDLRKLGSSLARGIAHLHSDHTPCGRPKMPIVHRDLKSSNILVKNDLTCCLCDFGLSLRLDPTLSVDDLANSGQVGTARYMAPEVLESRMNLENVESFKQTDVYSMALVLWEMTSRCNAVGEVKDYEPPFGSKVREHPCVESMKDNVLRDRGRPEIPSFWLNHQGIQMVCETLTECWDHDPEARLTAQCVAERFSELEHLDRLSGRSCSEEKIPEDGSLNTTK

340 wild-type kinases [4] = biological target: T3, 340 wild-type kinases (Homo sapiens, UniProt O75116); assay: as above; type: binding
T3 construct: purchased Reaction Biology Europe
T3 sequence (O75116 whole entry): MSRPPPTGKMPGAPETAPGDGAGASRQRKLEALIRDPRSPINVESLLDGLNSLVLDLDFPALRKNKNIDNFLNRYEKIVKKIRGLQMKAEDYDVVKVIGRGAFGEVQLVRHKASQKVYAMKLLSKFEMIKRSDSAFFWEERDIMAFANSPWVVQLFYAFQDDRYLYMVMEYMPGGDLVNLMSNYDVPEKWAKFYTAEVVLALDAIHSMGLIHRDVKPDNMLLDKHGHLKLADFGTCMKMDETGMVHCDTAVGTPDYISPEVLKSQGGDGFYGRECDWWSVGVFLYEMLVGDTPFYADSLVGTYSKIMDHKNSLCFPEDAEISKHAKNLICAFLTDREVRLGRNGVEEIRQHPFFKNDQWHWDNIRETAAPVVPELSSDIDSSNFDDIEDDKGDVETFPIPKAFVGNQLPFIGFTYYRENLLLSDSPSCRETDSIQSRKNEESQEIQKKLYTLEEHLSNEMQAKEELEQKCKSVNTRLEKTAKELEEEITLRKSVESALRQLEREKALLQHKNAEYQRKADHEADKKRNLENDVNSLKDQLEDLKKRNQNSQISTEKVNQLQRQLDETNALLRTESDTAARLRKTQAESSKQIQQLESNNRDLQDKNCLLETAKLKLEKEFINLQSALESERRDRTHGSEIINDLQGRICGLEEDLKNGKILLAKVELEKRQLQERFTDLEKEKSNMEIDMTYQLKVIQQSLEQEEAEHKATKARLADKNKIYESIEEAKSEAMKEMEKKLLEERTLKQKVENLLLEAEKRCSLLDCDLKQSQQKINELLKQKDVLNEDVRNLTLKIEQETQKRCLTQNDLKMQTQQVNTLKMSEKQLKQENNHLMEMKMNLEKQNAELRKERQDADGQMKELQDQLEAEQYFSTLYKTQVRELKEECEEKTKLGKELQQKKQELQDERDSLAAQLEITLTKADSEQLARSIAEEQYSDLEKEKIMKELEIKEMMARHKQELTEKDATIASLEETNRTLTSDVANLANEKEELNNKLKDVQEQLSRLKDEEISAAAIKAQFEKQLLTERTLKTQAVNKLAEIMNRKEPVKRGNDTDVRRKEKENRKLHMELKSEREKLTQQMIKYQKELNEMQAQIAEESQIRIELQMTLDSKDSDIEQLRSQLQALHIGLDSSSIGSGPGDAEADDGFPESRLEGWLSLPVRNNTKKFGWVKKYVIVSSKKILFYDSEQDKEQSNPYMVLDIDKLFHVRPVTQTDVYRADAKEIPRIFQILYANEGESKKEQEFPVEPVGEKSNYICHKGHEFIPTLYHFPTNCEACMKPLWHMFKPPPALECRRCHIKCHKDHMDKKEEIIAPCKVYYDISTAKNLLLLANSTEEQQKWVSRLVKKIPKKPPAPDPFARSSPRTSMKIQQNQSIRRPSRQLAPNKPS

340 wild-type kinases [5] = biological target: T4, 340 wild-type kinases (Homo sapiens, UniProt Q8IU85); assay: as above; type: binding
T4 construct: purchased Reaction Biology Europe
T4 sequence (Q8IU85 whole entry): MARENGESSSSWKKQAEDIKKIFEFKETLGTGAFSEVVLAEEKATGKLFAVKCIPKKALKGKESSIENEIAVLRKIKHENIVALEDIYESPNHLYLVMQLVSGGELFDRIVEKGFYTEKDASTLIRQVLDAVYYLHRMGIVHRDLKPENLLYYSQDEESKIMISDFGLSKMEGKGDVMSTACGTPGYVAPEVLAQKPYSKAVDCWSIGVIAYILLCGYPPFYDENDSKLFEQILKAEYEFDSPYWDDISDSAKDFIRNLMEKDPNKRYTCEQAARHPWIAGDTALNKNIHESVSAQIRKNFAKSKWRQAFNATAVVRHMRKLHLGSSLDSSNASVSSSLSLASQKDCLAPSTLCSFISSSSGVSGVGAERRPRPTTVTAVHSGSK

340 wild-type kinases [6] = biological target: T5, 340 wild-type kinases (Homo sapiens, UniProt P05129); assay: as above; type: binding
T5 construct: purchased Reaction Biology Europe

340 wild-type kinases [7] = biological target: T6, 340 wild-type kinases (Homo sapiens, UniProt Q13976); assay: as above; type: binding
T6 construct: purchased Reaction Biology Europe
T6 sequence (Q13976 1-671): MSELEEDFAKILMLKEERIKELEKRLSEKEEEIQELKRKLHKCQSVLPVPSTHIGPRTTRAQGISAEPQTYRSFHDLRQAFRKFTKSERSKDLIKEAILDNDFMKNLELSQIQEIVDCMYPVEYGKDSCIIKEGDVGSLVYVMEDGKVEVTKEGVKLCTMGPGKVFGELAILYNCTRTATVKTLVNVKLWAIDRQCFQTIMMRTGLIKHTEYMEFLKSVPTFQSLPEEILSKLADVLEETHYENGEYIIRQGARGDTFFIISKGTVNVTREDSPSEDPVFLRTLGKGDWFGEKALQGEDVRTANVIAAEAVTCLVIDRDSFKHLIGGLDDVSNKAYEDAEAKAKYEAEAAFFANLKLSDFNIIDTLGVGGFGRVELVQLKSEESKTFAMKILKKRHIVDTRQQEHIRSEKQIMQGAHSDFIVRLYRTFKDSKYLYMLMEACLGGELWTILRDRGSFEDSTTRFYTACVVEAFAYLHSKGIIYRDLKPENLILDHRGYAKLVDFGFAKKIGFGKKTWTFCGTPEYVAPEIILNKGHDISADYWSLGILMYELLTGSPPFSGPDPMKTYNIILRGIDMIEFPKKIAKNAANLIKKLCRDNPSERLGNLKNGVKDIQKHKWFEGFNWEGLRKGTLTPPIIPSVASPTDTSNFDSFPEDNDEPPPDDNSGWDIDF

340 wild-type kinases [8] = biological target: T7, 340 wild-type kinases (Homo sapiens, UniProt Q8TDC3); assay: as above; type: binding
T7 construct: purchased Reaction Biology Europe
T7 sequence (Q8TDC3 1-778): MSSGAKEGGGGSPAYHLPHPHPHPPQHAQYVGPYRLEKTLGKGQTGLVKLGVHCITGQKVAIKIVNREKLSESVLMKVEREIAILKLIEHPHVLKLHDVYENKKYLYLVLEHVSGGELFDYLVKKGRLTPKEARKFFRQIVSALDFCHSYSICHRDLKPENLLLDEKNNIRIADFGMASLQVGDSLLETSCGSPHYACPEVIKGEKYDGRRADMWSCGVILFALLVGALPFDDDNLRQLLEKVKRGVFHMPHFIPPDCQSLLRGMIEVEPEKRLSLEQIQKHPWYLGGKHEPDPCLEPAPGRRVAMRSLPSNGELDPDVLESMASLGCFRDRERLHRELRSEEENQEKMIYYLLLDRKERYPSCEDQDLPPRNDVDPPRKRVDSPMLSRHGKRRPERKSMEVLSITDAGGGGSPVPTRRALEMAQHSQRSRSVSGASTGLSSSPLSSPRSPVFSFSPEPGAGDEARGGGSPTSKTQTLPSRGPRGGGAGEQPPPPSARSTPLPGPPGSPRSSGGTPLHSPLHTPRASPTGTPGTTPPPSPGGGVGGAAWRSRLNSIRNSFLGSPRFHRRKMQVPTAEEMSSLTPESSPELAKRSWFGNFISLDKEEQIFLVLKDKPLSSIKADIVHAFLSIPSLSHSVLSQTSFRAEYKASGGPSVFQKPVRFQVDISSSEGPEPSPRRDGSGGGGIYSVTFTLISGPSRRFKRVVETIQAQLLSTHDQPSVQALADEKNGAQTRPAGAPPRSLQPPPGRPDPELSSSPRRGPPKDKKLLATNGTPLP

[9] = cell viability after 2015, Navitoclax or 2015 + Navitoclax (Fig. 5f); type: cell-based; design: concentration or dose not given beside the values; conditions: replicates

CNC(=O)c1ccc2c(c1)C(=O)c1ccc(Nc3ccc(F)c(NC(=O)C4CC4)c3)cc1CC2 [Compound 2015]
Survival (d of treatment) (KMP liver metastasis; individual mice, KMP liver metastasis, treatment started 1 week after transplantation): 42 days and 50 days and 29 days and 31 days and 35 days and 44 days
Kaplan–Meier event entry in 2015 (1 or 0) (KMP liver metastasis; individual mice, KMP liver metastasis, meaning of 1/0 not given): 1 and 0
survival of mice with KMP liver metastasis (in words) (KMP liver metastasis; long-term treatment): significantly prolonged survival
blood cell fractions versus carrier (in words) ([1]; 4 days or 10 weeks daily treatment): no relevant differences
Hemoglobin ([1]; mice treated 10w): 14.6 g/dL and 14.3 g/dL and 13.7 g/dL and 14.0 g/dL
MCV ([1]; mice treated 10w): 52.0 fL and 52.3 fL and 51.4 fL and 51.7 fL
MCH ([1]; mice treated 10w): 14.2 pg and 14.0 pg and 13.8 pg
MCHC ([1]; mice treated 10w): 27.4 g/dL and 26.8 g/dL and 26.9 g/dL and 26.6 g/dL
Hemoglobin ([1]; mice treated 4d): 14.7 g/dL and 15.4 g/dL and 14.6 g/dL and 14.5 g/dL
MCV ([1]; mice treated 4d): 52.3 fL and 51.8 fL and 51.9 fL and 51.5 fL
MCH ([1]; mice treated 4d): 14.5 pg and 14.4 pg and 13.7 pg
MCHC ([1]; mice treated 4d): 27.7 g/dL and 26.4 g/dL and 26.6 g/dL
Hematocrit (%) ([1]; 10w treatment): 53.3% and 53.4% and 50.9% and 52.6%
Hematocrit (%) ([1]; 4d treatment): 53.1% and 55.5% and 55.2% and 54.6%
remaining activity at 0.2 µM (340 wild-type kinases [2]; 0.2 µM 2015, read-out: PASK residual activity): 99.2%
remaining activity at 1 µM (340 wild-type kinases [2]; 1 µM 2015, read-out: PASK residual activity): 95.1%
remaining activity at 0.2 µM (340 wild-type kinases [2]; PASK, 0.2 µM, read-out: residual activity): 99.2%
remaining activity at 1 µM (340 wild-type kinases [2]; PASK, 1 µM, read-out: residual activity): 95.1%
remaining activity at 0.2 µM (340 wild-type kinases [3]; 0.2 µM 2015, read-out: TGFBR2 residual activity): 78.4%
remaining activity at 1 µM (340 wild-type kinases [3]; 1 µM 2015, read-out: TGFBR2 residual activity): 76.8%
remaining activity at 0.2 µM (340 wild-type kinases [3]; TGFBR2, 0.2 µM, read-out: residual activity): 78.3%
remaining activity at 1 µM (340 wild-type kinases [3]; TGFBR2, 1 µM, read-out: residual activity): 76.8%
remaining activity at 0.2 µM (340 wild-type kinases [4]; 0.2 µM 2015, read-out: ROCK2 residual activity): 89%
remaining activity at 1 µM (340 wild-type kinases [4]; 1 µM 2015, read-out: ROCK2 residual activity): 86.3%
remaining activity at 0.2 µM (340 wild-type kinases [4]; ROCK2, 0.2 µM, read-out: residual activity): 89%
remaining activity at 1 µM (340 wild-type kinases [4]; ROCK2, 1 µM, read-out: residual activity): 86.3%
remaining activity at 0.2 µM (340 wild-type kinases [5]; 0.2 µM 2015, read-out: CAMK1D residual activity): 100%
remaining activity at 1 µM (340 wild-type kinases [5]; 1 µM 2015, read-out: CAMK1D residual activity): 90.6%
remaining activity at 0.2 µM (340 wild-type kinases [5]; CAMK1D, 0.2 µM, read-out: residual activity): 100%
remaining activity at 1 µM (340 wild-type kinases [5]; CAMK1D, 1 µM, read-out: residual activity): 90.6%
remaining activity at 0.2 µM (340 wild-type kinases [6]; 0.2 µM 2015, read-out: PKCgamma residual activity): 109%
remaining activity at 1 µM (340 wild-type kinases [6]; 1 µM 2015, read-out: PKCgamma residual activity): 86.6%
remaining activity at 0.2 µM (340 wild-type kinases [6]; PKCgamma, 0.2 µM, read-out: residual activity): 109%
remaining activity at 1 µM (340 wild-type kinases [6]; PKCgamma, 1 µM, read-out: residual activity): 86.6%
remaining activity at 0.2 µM (340 wild-type kinases [7]; 0.2 µM 2015, read-out: PRKG1 residual activity): 106%
remaining activity at 1 µM (340 wild-type kinases [7]; 1 µM 2015, read-out: PRKG1 residual activity): 104%
remaining activity at 0.2 µM (340 wild-type kinases [7]; PRKG1, 0.2 µM, read-out: residual activity): 106%
remaining activity at 1 µM (340 wild-type kinases [7]; PRKG1, 1 µM, read-out: residual activity): 104%
remaining activity at 0.2 µM (340 wild-type kinases [8]; 0.2 µM 2015, read-out: BRSK1 residual activity): 99.5%
remaining activity at 1 µM (340 wild-type kinases [8]; 1 µM 2015, read-out: BRSK1 residual activity): 90.5%
remaining activity at 0.2 µM (340 wild-type kinases [8]; BRSK1, 0.2 µM, read-out: residual activity): 99.5%
remaining activity at 1 µM (340 wild-type kinases [8]; BRSK1, 1 µM, read-out: residual activity): 90.5%
Cell viability [9]: 58.51% and 44.25% and 42.17%
